According to patent US20180153159A1, “FATTY NITRILE SOLVENTS FOR AGRICULTURAL FORMULATIONS” (priority 2015, published 2018):

Assays:
[1] = Solubility of various pesticides in alkyl nitrile; format: physicochemical
Text: In Table 1, the designation of C14-18 represents the nitrile derived from tallow and C8-C16 represents the nitrile derived from coco. Note that the C14-C18 tallow nitrile corresponds to an R value of C13-C17 in Formula (I), because Formula (I) includes a carbon atom outside of the R group definition. Likewise, C8-C16 coco nitrile corresponds to an R value of C7-C15 in Formula (I). The C10 value in the first column of Table 1 corresponds to an R value of C9 in Formula (I) for the same reasons.

[2] = Appearance, flow and viscosity of (DMAPA) DDBS diluted with fatty nitrile; format: physicochemical
Text: Dimethylaminopropylamine dodecylbenzene sulfonic acid (DMAPA-DDBS) is generally highly viscous. A low viscosity liquid sample of (DMAPA) DDBS was obtained by mixing 51.69 g of DDBS, 40 g tallow nitrile (fractionated), followed by slowly adding 8.31 g DMAPA.
A liquid sample of dimethylaminopropylamine (DMAPA) DDBS was obtained by mixing 43.08 g dodecylbenzene sulfonic (DDBS) acid, 25 g oleic nitrile, 25 g castor oil ethoxylate (10EO), followed by slowly adding 6.92 g DMAPA.

[3] = 0.1 g in 5 g C14-C18 (tallow) nitrile
[4] = in 100 g C10 nitrile, room temperature
[5] = in 100 g C14-C18 (tallow) nitrile
[6] = <10 g in 100 g C14-C18 (tallow) nitrile

CNC.O=C(O)COc1ccc(Cl)cc1Cl [2,4-D DMA]
Result (solubility in alkyl nitrile) [1, 3]: Solid at bottom

CCOP(=S)(OCC)Oc1nc(Cl)c(Cl)cc1Cl [Chlorpyrifos]
Result (solubility in alkyl nitrile) ([1]; 44 g in 100 g C14-C18 (tallow) nitrile): Dissolved | Wt, g (pesticide dissolved) ([1]; in 20 g C10 nitrile + 80 g Solvesso 100 solvent, room temperature): 102 g | Wt, g (pesticide dissolved) ([1]; in 20 g C10 nitrile + 80 g methyl ester solvent, room temperature): 87 g | Wt, g (pesticide dissolved) ([1]; in 30 g C10 nitrile + 70 g methyl ester solvent, room temperature): 100 g | Wt, g (pesticide dissolved) ([1]; in 35 g C10 nitrile + 65 g Solvesso 100 solvent, room temperature): 103 g | Wt, g (pesticide dissolved) ([1]; in 40 g C10 nitrile + 60 g methyl ester solvent, room temperature): 166 g | Wt, g (pesticide dissolved) ([1]; in 50 g C10 nitrile + 50 g Solvesso 100 solvent, room temperature): 102 g | Wt, g (pesticide dissolved) [1, 4]: 84 g | Wt, g (pesticide dissolved) [1, 5]: 44 g | amount the C10 nitrile can dissolve ([1]; in C10 nitrile (Arneel 10D)): about 46%

O=C(O)CNCP(=O)(O)O [Glyphosate acid]
Result (solubility in alkyl nitrile) [1, 3]: Solid at bottom

COc1cc(OC)nc(NC(=O)NS(=O)(=O)c2ncccc2C(=O)N(C)C)n1 [Nicosulfuron]
Result (solubility in alkyl nitrile) ([1]; 0.114 g (92.22%) in 1 g C14-C18 (tallow) nitrile): Suspension

CC(C)(C)C(O)(CCc1ccc(Cl)cc1)Cn1cncn1 (stereo not drawn) [Tebuconazole]
Result (solubility in alkyl nitrile) ([1]; 0.4 g in 5 g C14-C18 (tallow) nitrile): Hazy to clr | Result (solubility in alkyl nitrile) [1, 6]: Dissolved | Wt, g (pesticide dissolved) [1, 4]: <10 g | Wt, g (pesticide dissolved) [1, 5]: <10 g

CON=C(C(=O)OC)c1ccccc1CON=C(C)c1cccc(C(F)(F)F)c1 [Trifloxystrobin]
Result (solubility in alkyl nitrile) [1, 6]: Dissolved | Wt, g (pesticide dissolved) ([1]; in 50 g C10 nitrile + 50 g rapeseed methylester (solvent), room temperature): 14 g | Wt, g (pesticide dissolved) [1, 4]: 19 g | Wt, g (pesticide dissolved) [1, 5]: <10 g

NC(N)=O [Urea]
Result (solubility in alkyl nitrile) ([1]; 0.26 g in 1 g C14-C18 (tallow) nitrile): Doesn't dissolve | solvency power of fatty nitrile towards the agrochemical ([1]; fatty nitrile as solvent): very little solvency power

Dimethylaminopropylamine dodecylbenzene sulfonic acid [(DMAPA) DDBS]
appearance, flow and viscosity of sample ([2]; 43.08 g DDBS acid, 25 g oleic nitrile, 25 g castor oil ethoxylate (10EO), 6.92 g DMAPA): clear, flowed at about 0° C., and had acceptable viscosity | appearance, flow and viscosity of sample ([2]; 51.69 g DDBS, 40 g tallow nitrile (fractionated), 8.31 g DMAPA): clear, flowed freely at room temperature and had acceptable viscosity | appearance, flow and viscosity of sample ([2]; oleic nitrile instead of tallow nitrile): flowed better at lower temperatures

Pyritherin
Result (solubility in alkyl nitrile) ([1]; 3.15 g in 5 g C14-C18 (tallow) nitrile): Clear
